Laboratory results reported in article PMC10137182, “Novel CDK12/13 Inhibitors AU-15506 and AU-16770 Are Potent Anti-Cancer Agents in EGFR Mutant Lung Adenocarcinoma with and without Osimertinib Resistance” (Cancers, 2023).
pIC50: −log10 of the molar value. Where two headings read alike, the source gives them in different places.

Columns and labels:
FGFR1 = FGFR1 (Homo sapiens, UniProt P11362); parameters: method as in PMID 19282669; details: at 1 μM; cited from earlier work
[1] = system: PC9-osiR-NCI1-derived tumors; experiment: Subcutaneous xenograft mouse model; type: in vivo, athymic female nude mice
Experimental: All mice xenograft studies were conducted on 5–6-week-old female athymic nude mice […] with approval from the NCI Animal Care and Use Committee (ACUC). Mice were obtained from NCI-Frederick and maintained in a pathogen-free facility at the NCI. H1975-osiR-NCI1 or PC9-osiR-NCI1 cells were cultured in RPMI (Millipore-Sigma) supplemented with 10% fetal bovine serum (Gemini) and 1% penicillin/streptomycin. All cell lines were then cultured in a humidified incubator with 5% CO2 at 37 °C. Cells were detached using 0.25% trypsin (ThermoFisher) and resuspended in PBS prior to implantation. Approximately 2 × 10^6 cells/0.1 mL/mouse were implanted subcutaneously. […] Tumor growth was monitored twice weekly by bilateral caliper measurement and tumor volume was calculated using the length × diameter^2 formula. Mice with tumor volume <200 mm^3 were randomized into vehicle or treatment groups to ensure equal distribution across groups. However, for tumor tissue collection and lysate preparation, mice with xenografts were maintained with osimertinib until tumor size reached approximately 900 mm^3 prior to drug treatment for 5 days. Vehicle (0.5% methyl cellulose), osimertinib (5 mg/kg/day), AU-15506 (5 mg/kg/day), or AU-16770 (5 mg/kg/day) were administered by oral gavage. AU-15506 or AU-16770 were prepared in a solution containing 10% PEG400, 10% D-ɑ-tocopheryl polyethylene glycol succinate (TPGS), and 0.4% Tween 80. Tumor size was measured twice weekly. Tumor volume for each mouse was converted to percent change based on a baseline volume of 100% on treatment day 0. Tumor growth inhibition was assessed by comparison of either the average tumor volume or mean changes in tumor volume for the control and treatment groups. Statistical significance was evaluated using a two-tailed Student’s t test.

H1975 cells = experiment: Cell-growth-inhibition end-point assay (CellTiter-Glo, 72 h); type: cell-based; details: Homo sapiens, NCI-H1975, osimertinib alone; Figure 1B
Experimental: (§1) Approximately 1500 cells/[…] were plated in 96-well plates with 4 wells for each treatment condition. Plates were incubated at 37 °C. For the cell growth assay, one set of cells was treated each day for 5 days with cell titer glow reagent (Promega), and luciferase luminescence (indicator of cell viability) was measured according to the manufacturer’s protocol. For the growth inhibition end-point assay, cells in 96-well plates were treated with target drugs as follows.

PC9 cells [2] = experiment: as above; type: cell-based; details: Homo sapiens, PC-9, read-out: IC50 (osimertinib), PC9
Experimental: as §1

HCC827 cells = experiment: as above; type: cell-based; details: Homo sapiens, HCC827, read-out: IC50 (osimertinib), HCC827
Experimental: as §1

H1975-osiR-NCI1 cells = experiment: as above; type: cell-based; details: Homo sapiens
Experimental: (§2) After 3–4 days of growth, surviving cells were trypsinized and plated again at the same initial density and the next day, the medium was replaced with a fresh growth medium, supplemented with 2× (relative to the previous concentration) of osimertinib. This process continued until osimertinib concentration reached […]. The newly generated osimertinib-resistant cells (H1975-osiR-NCI1, PC9-osiR-NCI1, HCC827-osiR-NCI1, and HCC827-osiR-NCI2) were then maintained at […] osimertinib.
as §1

HCC827-osiR-NCI1 cells = experiment: as above; type: cell-based; details: Homo sapiens
Experimental: as §2, §1

PC9-osiR-NCI1 cells [3] = experiment: as above; type: cell-based; details: Homo sapiens, read-out: IC50 (osimertinib), PC9-osiR-NCI1
Experimental: as §2, §1

[4] = system: H1975, PC9, and HCC827 parental and osimertinib-resistant cells; experiment: Cell-growth-inhibition assays, summary over the cell panel; type: cell-based; details: Homo sapiens
Experimental: as §1

PC9-osiR-NCI1 cells [5] = experiment: Cell-cycle analysis by flow cytometry (propidium iodide); type: cell-based, human; details: 50 nM osimertinib or 100 nM AU-16770, 18 h
Experimental: (§3) PC9 and PC9-osiR-NCI1 cells were initially grown in an RPMI-1640 medium supplemented with 10% FBS, 1% penicillin/streptomycin, and 2 […]. Following 3–4 days of growth, cells were trypsinized, replated in 10 cm Petri dishes and grown in drug-free RPMI-1640, 10% FBS, and 1% penicillin/streptomycin. Both groups of cells were treated with DMSO (vehicle), osimertinib (50 nM), or AU-16770 (100 nM) for 18 h. Cells were trypsinized, washed with PBS, fixed in 70% ethanol, washed twice in PBS, and approximately 5 × 10^5 cells/mL were incubated in […] propidium iodide/PBS and 100 units/mL RNase to label the DNA for 1 h before it was analyzed by FACS.

PC9 cells [6] = experiment: as above; type: cell-based, human; details: 50 nM osimertinib or 100 nM AU-16770, 18 h
Experimental: as §3

Chain of FGFR1 (P11362 22-822, species assumed): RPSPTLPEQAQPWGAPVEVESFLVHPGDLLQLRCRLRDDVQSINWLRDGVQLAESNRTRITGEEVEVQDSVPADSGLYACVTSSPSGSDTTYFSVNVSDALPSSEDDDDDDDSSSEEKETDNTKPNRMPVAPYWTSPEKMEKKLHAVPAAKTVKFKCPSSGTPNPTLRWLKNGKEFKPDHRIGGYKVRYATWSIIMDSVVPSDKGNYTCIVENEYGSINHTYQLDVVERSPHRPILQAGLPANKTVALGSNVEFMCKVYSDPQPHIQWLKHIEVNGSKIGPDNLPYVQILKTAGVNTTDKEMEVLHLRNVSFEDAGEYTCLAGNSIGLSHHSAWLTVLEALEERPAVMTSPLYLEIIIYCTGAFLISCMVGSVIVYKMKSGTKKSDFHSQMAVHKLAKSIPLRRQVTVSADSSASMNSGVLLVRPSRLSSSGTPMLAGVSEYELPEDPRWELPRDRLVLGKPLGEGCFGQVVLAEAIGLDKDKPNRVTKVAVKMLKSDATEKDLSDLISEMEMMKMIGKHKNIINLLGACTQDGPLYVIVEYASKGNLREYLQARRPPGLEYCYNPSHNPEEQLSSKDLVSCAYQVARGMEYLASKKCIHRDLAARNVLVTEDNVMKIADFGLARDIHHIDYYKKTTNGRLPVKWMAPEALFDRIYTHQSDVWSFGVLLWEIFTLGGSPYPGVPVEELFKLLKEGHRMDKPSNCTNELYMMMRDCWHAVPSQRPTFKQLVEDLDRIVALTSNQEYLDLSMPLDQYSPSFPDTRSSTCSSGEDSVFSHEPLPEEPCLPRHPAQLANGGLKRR

SMILES | inhibition of FGFR1 (FGFR1) | effect on xenograft tumor growth ([1]; 5 mg/kg/day oral gavage, AU-15506 arms 14 days, AU-16770 arms 28 days) | median survival (Kaplan–Meier) ([1]; 5 mg/kg/day, combination = AU-16770-osimertinib (days 0–32), AU-15506-osimertinib (days 33–46)) | Tumor growth inhibition (TGI) ([1]; Day 28, 5 mg/kg/day oral gavage) | pIC50 (H1975 cells) | pIC50 (PC9 cells [2]) | pIC50 (HCC827 cells) | pIC50 (H1975-osiR-NCI1 cells; NCI-H1975/OSIR, osimertinib alone, read-out: IC50, H1975-osiR cells) | pIC50 (H1975-osiR-NCI1 cells; read-out: IC50 (osimertinib), H1975-osiR-NCI1) | pIC50 (HCC827-osiR-NCI1 cells; read-out: IC50 (osimertinib), HCC827-osiR-NCI1) | pIC50 (HCC827-osiR-NCI1 cells; read-out: IC50, HCC827-osiR cells) | pIC50 (PC9-osiR-NCI1 cells [3]) | pIC50 ([4]; read-out: IC50s, osimertinib-resistant cells (range over cell lines)) | pIC50 ([4]; read-out: IC50s, osimertinib-sensitive cells (range over cell lines)) | Cell Cycle Phase % G1, PC9-osiR (PC9-osiR-NCI1 cells [5]) | Cell Cycle Phase % G2, PC9-osiR (PC9-osiR-NCI1 cells [5]) | Cell Cycle Phase % S, PC9-osiR (PC9-osiR-NCI1 cells [5]) | Cell Cycle Phase % G1, PC9 (PC9 cells [6]) | Cell Cycle Phase % G2, PC9 (PC9 cells [6]) | Cell Cycle Phase % S, PC9 (PC9 cells [6])
CN(C)C/C=C/C(=O)Nc1ccc(C(=O)N2CCC[C@@H](Nc3ncc(Cl)c(-c4c[nH]c5ccccc45)n3)C2)cc1 [THZ531] | 82% | – | – | – | – | – | – | – | – | – | – | – | – | – | – | – | – | – | – | –
C=CC(=O)Nc1cc(Nc2nccc(-c3cn(C)c4ccccc34)n2)c(OC)cc1N(C)CCN(C)C [osimertinib] | – | induced some tumor regression | 40 days | 50% | 7.33 | 7.43 | 8.12 | 5.73 | 5.73 | 5.26 | 5.26 | 5.65 | 5.26 to 5.73 | 7.33 to 8.12 | 54.10% | 1.41% | 38.40% | 67.40% | 24.8% | 13.10%
